Source: ChEMBL document CHEMBL1131457, “cis-[PtCl2(4,7-H-5-methyl-7-oxo[1,2,4]triazolo[1,5-a]pyrimidine)2]: a sterically restrictive new cisplatin analogue. Reaction kinetics with model nucleobases, DNA interaction studies, antitumor activity, and structure-activity relationships” (J Med Chem, 1998)

Experiments:
Assay type in all cases: functional, cell-based
[1] = test system: A121; experiment: Dose at which compound exhibits cytotoxicity in the A121 ovarian carcinoma cell line.; conditions: Homo sapiens
[2] = test system: A121; experiment: Cytotoxic effect (tumor cell growth inhibition) on the human cell line A121 ovarian carcinoma at the dose of […]
[3] = test system: A121; experiment: Cytotoxic effect (tumor cell growth inhibition) on the human cell line A121 ovarian carcinoma at the dose of […]
[4] = test system: MCF7; experiment: Cytotoxic effect (tumor cell growth inhibition) on the human cell line MCF-7 breast carcinoma at a dose of […]
[5] = test system: MCF7; experiment: Dose at which compound exhibits cytotoxicity in the MCF-7 cell line.; conditions: Homo sapiens

Substance cis-[PtCl2(Hmtpo-N3)2].2H2O has an ID50 [1] of 14.3 µM, a Cytotoxic effect [2] of 53% and a Cytotoxic effect [3] of 84%. For the same substance, the Cytotoxic effect [4] was 54.8% and the ID50 [5] was 33.4 µM.
